In patent publication US9156860B2, “Boron-containing small molecules” (Anacor Pharmaceuticals, Inc., priority 2011, dated 2015):

Assays:
[1] = test system: Lone star tick larvae (Amblyomma americanum); assay: Larval immersion microassay against larval-stage Lone star ticks; conditions: Amblyomma americanum, 24 h, read-out: activity (percent larval mortality)
[2] = test system: adult American dog tick (Dermacentor variabilis); assay: Example 5: efficacy against adult American dog tick infestations on dogs; type: in vivo
Protocol: The therapeutic (knockdown) and residual efficacy of 7 and 8, each administered orally at a point dose of either 25 mg/kg or 50 mg/kg bodyweight, was evaluated against adult tick (Dermacentor variabilis and Rhipicephalus sanguineus) infestations on dogs. Twenty (20) male and female beagle dogs were allocated to one of five treatment groups, four (4) dogs per group: Untreated control; 7, 25 mg/kg; 7, 50 mg/kg; 8, 25 mg/kg; and 8, 50 mg/kg. On Day −1, all dogs were infested with approximately 50 unfed, adult D. variabilis ticks. On Day 0, dogs were orally administered gelatin capsules containing either 7 or 8 (50% technical active, 47% microcrystalline cellulose and 3% croscarmellose sodium, w/w) so as to achieve the desired point dosages. Ticks were counted and classified on all dogs, but not removed, on Day 1 (approximately 24 hours after treatment). On Day 2, approximately 48 hours after treatment, ticks were counted, classified and removed. Dogs were re-infested with the same number of D. variabilis ticks on Days 5, 12 and 19 with corresponding 48 hour post-infestation tick counts on Days 7, 14 and 21. Dogs were infested with approximately 50 unfed, adult brown dog ticks (Rhipicephalus sanguineus; approximately 50% male and 50% female) on Days 15 and 28, with corresponding 48 hour post-infestation tick counts on Days 17 and 30. GM percent efficacy of treatments against both tick species was calculated using the following formula: […]

[3] = test system: adult American dog tick (Dermacentor variabilis); assay: Example 6: efficacy against adult American dog tick infestations on dogs, 48 h and 72 h counts; type: in vivo; conditions: 50 mg/kg oral
Protocol: […] Twelve (12) male and female beagle dogs were allocated to three treatment groups: Untreated, negative control A; 7 group B; and 7 group C (n=4 dogs per group). Dogs were infested with approximately 50 unfed, adult D. variabilis ticks on Days −1, 5, 12, 19 and 28. For 7 group B dogs, tick counts and classification were conducted at 48 hour post-treatment or post-infestation intervals on Days 2, 7, 14, 21 and 30. For negative control group A and 7 group C dogs, tick counts and classification were conducted at 72 hour post-treatment or post-infestation intervals on Days 3, 8, 15, 22 and 31. On Day 0, dogs in groups B and C were orally administered gelatin capsules containing 7 (50% technical active, 47% microcrystalline cellulose and 3% croscarmellose sodium, w/w) at a point dose of 50 mg/kg. Both 48 hour and 72 hour counts in the treated groups were adjusted to counts from the same 72 hour negative control group. GM percent efficacy of treatments was calculated using the following formula:

[4] = test system: adult cat flea (Ctenocephalides felis); assay: Example 7: therapeutic efficacy and speed of kill against adult cat flea infestations on dogs; type: in vivo; conditions: 25 mg/kg oral
Protocol: The therapeutic efficacy and speed of kill of 7, administered orally at a point dose of 25 mg/kg bodyweight, was evaluated against adult cat flea (Ctenocephalides felis) infestations on dogs. Twelve (12) male and female beagle dogs were allocated to one of four treatment groups (n=3 dogs per group). Group A was untreated, negative control; groups B, C and D received 7. On Day −1, all dogs were infested with approximately 100 unfed, adult fleas (approximately 50% male and 50% female). On Day 0, dogs in groups B, C and D were orally administered gelatin capsules containing 7, at a point dose of 25 mg/kg (50% technical active, 47% microcrystalline cellulose and 3% croscarmellose sodium, w/w). At eight (8) hours post-treatment, fleas were counted and removed from dogs in group B; at twelve (12) hours post-treatment, fleas were counted and removed from dogs in group C; and at twenty-four (24) hours post-treatment, fleas were counted and removed from dogs in groups A and D. GM percent efficacy of treatments against fleas was calculated using the following formula: […]

## CC1(C)OB(O)c2ccc(C3=NOC(c4cc(Cl)c(Cl)c(Cl)c4)(C(F)(F)F)C3)cc21 (racemic) [Compound 7, 3,3-Dimethyl-5-(5-(3,4,5-trichlorophenyl)-5-(trifluoromethyl)-4,5-dihydroisoxazol-3-yl)benzo[c][1,2]oxaborol-1(3H)-ol]
[1]
  mortality at 300 µM: ≥ 80%
[2]; 25 mg/kg oral capsule, Day 1
  % efficacy: (90.4) %
  Geometric mean group live tick count: 1.0
[2]; 25 mg/kg oral capsule, Day 2
  Geometric mean group live tick count: 0.0
[2]; 25 mg/kg oral capsule, Day 7
  Geometric mean group live tick count: 0.7
[2]; 25 mg/kg oral capsule, Day 14
  % efficacy: (67.6) %
  Geometric mean group live tick count: 5.3
[2]; 25 mg/kg oral capsule, Day 21
  % efficacy: (71.1) %
  Geometric mean group live tick count: 4.7
[2]; 50 mg/kg oral capsule, Day 1
  % efficacy: (83.0) %
  Geometric mean group live tick count: 1.8
[2]; 50 mg/kg oral capsule, Day 2
  Geometric mean group live tick count: 0.0
[2]; 50 mg/kg oral capsule, Day 7
  Geometric mean group live tick count: 0.4
[2]; 50 mg/kg oral capsule, Day 14
  % efficacy: (88.5) %
  Geometric mean group live tick count: 1.9
[2]; 50 mg/kg oral capsule, Day 21
  % efficacy: (80.1) %
  Geometric mean group live tick count: 3.2
[3]; Week 0, 48 h count (Day 2)
  Geometric mean group live tick count: 0.3
[3]; Week 0, 72 h count (Day 3)
  Geometric mean group live tick count: 0.0
[3]; Week 1, 48 h count (Day 7)
  % efficacy: (85.1) %
  Geometric mean group live tick count: 2.6
[3]; Week 1, 72 h count (Day 8)
  % efficacy: (100) %
  Geometric mean group live tick count: 0.0
[3]; Week 2, 48 h count (Day 14)
  % efficacy: (78.3) %
  Geometric mean group live tick count: 6.1
[3]; Week 2, 72 h count (Day 15)
  % efficacy: (99.3) %
  Geometric mean group live tick count: 0.2
[3]; Week 3, 48 h count (Day 21)
  % efficacy: (13.0) %
  Geometric mean group live tick count: 10.7
[3]; Week 3, 72 h count (Day 22)
  % efficacy: (100) %
  Geometric mean group live tick count: 0.0
[3]; Week 4, 48 h count (Day 30)
  % efficacy: (35.5) %
  Geometric mean group live tick count: 16.3
[3]; Week 4, 72 h count (Day 31)
  Geometric mean group live tick count: 0.8
[3]; through week 3 (Day 22)
  Residual efficacy using 72 hour count intervals: > 99%
[3]; through week 4 (Day 30)
  Residual efficacy at 48 hour intervals: < 90%
[4]; 8 hours post-treatment
  % efficacy: (11.8) %
  Geometric mean group live flea count: 75.6
[4]; 12 hours post-treatment
  Geometric mean group live flea count: 0.3
[4]; 24 hours post-treatment
  Geometric mean group live flea count: 0.0
